In patent publication US12691136B2, “Metal compositions and methods of use thereof” (THE UNIVERSITY OF MASSACHUSETTS, priority 2020, dated 2026):
Entries after “also recorded” stand apart in the source; their conditions may differ. Where two headings read alike, the source gives them in different places.

Tests used:
[1] = system: Pseudomonas aeruginosa PAO1; experiment: Antibacterial assay / bacterial checkerboard assay (MIC, FIC, MBC); conditions: for Enhancement: MIC without TU vs with 7 mM TU; for change in MIC / activity with the addition of TU (isobologram): FIG. 1A / 1B, combination with TU; for MIC: Pseudomonas aeruginosa; for Fold Improvement in MIC: at the best FIC; for impact of TU on activity: common antibiotics with TU, Table 3 entries; for Best FIC: with TU at the [TU] of the same line
[2] = system: Pseudomonas aeruginosa PAO1; conditions: reference antibiotics against P. aeruginosa PAO1; cited from earlier work
[3] = [Au], Table 8, strain not given

With `CC(=O)OC[C@H]1O[C@@H]([S-])[C@H](OC(C)=O)[C@@H](OC(C)=O)[C@@H]1OC(C)=O.CCP(CC)CC.[Au+]` [Auranofin, auranofin] the “MIC (0 mM TU)” value ([1]; [Au], Table 9) was 377 µM, the activity enhancement ([1]; 7 mM TU vs alone) was 256 fold and the “MIC (7 mM TU)” value ([1]; [Au], Table 9) was 1.5 µM. It also gave an Enhancement ([1]; Table 9) of 256.
In the case of `O.O.O.[Cl][Au-]([Cl])([Cl])[Cl].[H+]` [HAuCl4 (Au^3+), tetrachloroauric(III) acid trihydrate], the “MIC (0 mM TU)” value ([1]; [Au], Table 9) is reported as 40 µM, the activity enhancement ([1]; 7 mM TU vs alone) is reported as 32 fold and the “MIC (7 mM TU)” value ([1]; [Au], Table 9) is reported as 1.3 µM. For the same molecule, the Enhancement ([1]; Table 9) was 32.
For `C[PH](C)(C)[Au][S]CCO` [MS-40, trimethylphosphine gold(I) mercaptoethanol], the “MIC (0 mM TU)” value [1, 3] was 5.7 µM, the “MIC (1 mM TU)” value ([1]; 1 mM TU, [Au], Table 8, strain not given) was 5.7 µM and the “MIC (2 mM TU)” value ([1]; 2 mM TU, [Au], Table 8, strain not given) was 5.7 µM. For the same molecule, the “MIC (3 mM TU)” value ([1]; 3 mM TU, [Au], Table 8, strain not given) was 5.7 µM, the “MIC (7 mM TU)” value [1, 3] was 5.7 µM and the “MIC (13 mM TU)” value ([1]; 13 mM TU, [Au], Table 8, strain not given) was 2.9 µM. For the same molecule, the “MIC (27 mM TU)” value ([1]; 27 mM TU, [Au], Table 8, strain not given) was 2.9 µM, the “MIC (54 mM TU)” value ([1]; 54 mM TU, [Au], Table 8, strain not given) was 1.4 µM and the activity enhancement ([1]; at 54 mM TU) was 4 fold.
For `CCN1CCN(C(=O)N[C@@H](C(=O)N[C@@H]2C(=O)N3[C@@H]2SC(C)(C)[C@@H]3C(=O)O)c2ccccc2)C(=O)C1=O` [Piperacillin], the “change in MIC / activity with the addition of TU (isobologram)” value (from here on “change in MIC / activity … (isobologram)”) [1] was “very little change”, the “change in MIC / activity … (isobologram)” value ([1]; listed as piperacillin) was “almost no change” and the MIC ([1]; PAO1, read-out: MIC w/o TU) was 2 µM. For the same molecule, the MIC ([1]; PAO1, read-out: MIC with TU) was 2 µM, the “Fold Improvement in MIC” value [1] was 1 and the “impact of TU on activity” value [1] was “no impact”. For the same molecule, the “Best FIC” value [1] was 1.0.
For `NC(N)=S` [TU, thiourea], the MIC ([1]; PAO1) was 16 mg/mL.
For `O=C(O)c1cn(C2CC2)c2cc(N3CCNCC3)c(F)cc2c1=O` [ciprofloxacin], the “change in MIC / activity … (isobologram)” value [1] was “very little change; also recorded: almost no change”.
For Gentamicin, the “change in MIC / activity … (isobologram)” value [1] was “very little change; also recorded: almost no change”, the “MIC with TU” value ([1]; TU at the [TU] of the same line (best FIC)) was 4.0 µM and the “Fold Improvement in MIC” value [1] was 1. For the same molecule, the “impact of TU on activity” value [1] was “no impact”, the “Best FIC” value [1] was 1.0 and the “MIC w/o TU” value ([1]; without TU) was 4.0 µM.
For colistin, the MIC [2] is given as 1 µg/mL.
